Data as given in patent publication US6825170B2, “6-O-acyl ketolide antibacterials” (Ortho-McNeil Pharmaceutical, Inc., priority 2001, dated 2004).
≈ marks a conversion by molar mass, not a printed value.

How the values were obtained:
Assay in all cases: MIC, microdilution broth method (NCCLS)
Assay type in all cases: cell-based
Conditions in all cases: 35° C., 16-20 hours
E. faecalis ATCC29212 = tested on: E. faecalis ATCC29212
Method: (§1) Minimal inhibitory concentration (MIC) has been an indicator of in vitro antibacterial activity widely used in the art. The in vitro antimicrobial activity of the compounds was determined by the microdilution broth method following the test method from the National Committee for Clinical Laboratory Standards (NCCLS). This method is described in the NCCLS Document M7-A4, Vol.17, No.2, “Methods for Dilution Antimicrobial Susceptibility Test for Bacteria that Grow Aerobically—Fourth Edition”, which is incorporated herein by reference.
(§2) In this method two-fold serial dilutions of drug in cation adjusted Mueller-Hinton broth are added to wells in microdilution trays. The test organisms are prepared by adjusting the turbidity of actively growing broth cultures so that the final concentration of test organism after it is added to the wells is approximately 5×10^4 CFU/well.
(§3) Following inoculation of the microdilution trays, the trays are incubated at 35° C. for 16-20 hours and then read. […] The amount of growth in the wells containing the test compound is compared with the amount of growth in the growth-control wells (no test compound) used in each tray. As set forth in Table 1, compounds of the present invention were tested against a variety of Gram positive and Gram negative pathogenic bacteria resulting in a range of activities depending on the organism tested.

H. influenzae ATCC49247 = tested on: H. influenzae ATCC49247
Method: as §1, §2, §3

S. aureus ATCC29213 = tested on: S. aureus ATCC29213
Method: as §1, §2, §3

S. pneumoniae ATCC49619 = tested on: S. pneumoniae ATCC49619
Method: as §1, §2, §3

| SMILES | MIC (C: E. faecalis ATCC29212) (E. faecalis ATCC29212) | MIC (E: H. influenzae ATCC49247) (H. influenzae ATCC49247) | MIC (B: S. aureus ATCC29213) (S. aureus ATCC29213) | MIC (D: S. pneumoniae ATCC49619) (S. pneumoniae ATCC49619) |
| --- | --- | --- | --- | --- |
| CC[C@H]1OC(=O)[C@H](C)C(=O)[C@H](C)[C@@H](O[C@@H]2O[C@H](C)C[C@H](N(C)C)[C@H]2O)[C@](C)(OC(=O)SCc2ccc(-n3cncn3)cc2)C[C@@H](C)C(=O)[C@H](C)[C@H]2NC(=O)O[C@@]21C [Compound 840] | 0.12 µg/mL (≈ 0.147 µM) | 2 µg/mL (≈ 2.45 µM) | 0.5 µg/mL (≈ 0.613 µM) | 0.06 µg/mL (≈ 0.0735 µM) |
| CCC1OC(=O)C(C)C(=O)C(C)C(OC2OC(C)CC(N(C)C)C2O)C(C)(OC(=O)OCC=Cc2ccc(-n3ccnn3)cc2)CC(C)C(=O)C(C)C2NC(=O)OC12C (stereo not shown) [Compound 24] | 0.06 µg/mL (≈ 0.0726 µM) | 1 µg/mL (≈ 1.21 µM) | 0.12 µg/mL (≈ 0.145 µM) | ≦0.015 μg/mL |
| CCC1OC(=O)C(C)C(=O)C(C)C(OC2OC(C)CC(N(C)C)C2O)C(C)(OC(=O)OCC=Cc2cn(-c3cnccn3)cn2)CC(C)C(=O)C(C)C2NC(=O)OC12C (stereo not shown) [Compound 35] | 0.12 µg/mL (≈ 0.145 µM) | 1 µg/mL (≈ 1.21 µM) | 0.25 µg/mL (≈ 0.302 µM) | 0.03 µg/mL (≈ 0.0363 µM) |
| CCC1OC(=O)C(C)C(=O)C(C)C(OC2OC(C)CC(N(C)C)C2O)C(C)(OC(=O)OCC=Cc2ccc(-c3cnco3)cc2)CC(C)C(=O)C(C)C2NC(=O)OC12C (stereo not shown) [Compound 48] | 0.12 µg/mL (≈ 0.145 µM) | 1 µg/mL (≈ 1.21 µM) | 0.12 µg/mL (≈ 0.145 µM) | 0.03 µg/mL (≈ 0.0363 µM) |
| CC[C@H]1OC(=O)[C@H](C)C(=O)[C@H](C)[C@@H](O[C@@H]2O[C@H](C)C[C@H](N(C)C)[C@H]2O)[C@](C)(OC(=O)NNC(=O)OCc2ccccc2)C[C@@H](C)C(=O)[C@H](C)[C@H]2NC(=O)O[C@@]21C [Compound 814] | 0.5 µg/mL (≈ 0.632 µM) | 8 µg/mL (≈ 10.1 µM) | 8 µg/mL (≈ 10.1 µM) | 0.12 µg/mL (≈ 0.152 µM) |
| CCC1OC(=O)C(C)C(=O)C(C)C(OC2OC(C)CC(N(C)C)C2O)C(C)(OC(=O)OCC=Cc2ccc(-c3cnccn3)s2)CC(C)C(=O)C(C)C2NC(=O)OC12C (stereo not shown) [Compound 65] | 0.12 µg/mL (≈ 0.142 µM) | 1 µg/mL (≈ 1.19 µM) | 0.25 µg/mL (≈ 0.297 µM) | 0.03 µg/mL (≈ 0.0356 µM) |
| CC[C@H]1OC(=O)[C@H](C)C(=O)[C@H](C)[C@@H](O[C@@H]2O[C@H](C)C[C@H](N(C)C)[C@H]2O)[C@](C)(OC(=O)NOC/C=C/c2ccc(-c3ccccn3)cc2)C[C@@H](C)C(=O)[C@H](C)[C@H]2NC(=O)O[C@@]21C [Compound 617] | 0.12 µg/mL (≈ 0.141 µM) | – | 0.25 µg/mL (≈ 0.294 µM) | 0.03 µg/mL (≈ 0.0353 µM) |
| CCC1OC(=O)C(C)C(=O)C(C)C(OC2OC(C)CC(N(C)C)C2O)C(C)(OC(=O)OCC=Cc2ccc3nccnc3c2)CC(C)C(=O)C(C)C2NC(=O)OC12C (stereo not shown) [Compound 44] | 0.06 µg/mL (≈ 0.074 µM) | – | 0.12 µg/mL (≈ 0.148 µM) | ≦0.015 μg/mL |
| CCC1OC(=O)C(C)C(=O)C(C)C(OC2OC(C)CC(N(C)C)C2O)C(C)(OC(=O)OCC(F)=Cc2ccc(-c3ncccn3)cc2)CC(C)C(=O)C(C)C2NC(=O)OC12C (stereo not shown) [Compound 160] | 0.06 µg/mL (≈ 0.0702 µM) | 1 µg/mL (≈ 1.17 µM) | 0.12 µg/mL (≈ 0.14 µM) | 0.03 µg/mL (≈ 0.0351 µM) |
| CC[C@H]1OC(=O)[C@H](C)C(=O)[C@H](C)[C@@H](O[C@@H]2O[C@H](C)C[C@H](N(C)C)[C@H]2O)[C@](C)(OC(=O)N(C)OCCc2ccc(-c3ncccn3)cc2)C[C@@H](C)C(=O)[C@H](C)[C@H]2NC(=O)O[C@@]21C [Compound 621] | 0.25 µg/mL (≈ 0.293 µM) | – | 1 µg/mL (≈ 1.17 µM) | 0.12 µg/mL (≈ 0.141 µM) |
| CCC1OC(=O)C(C)C(=O)C(C)C(OC2OC(C)CC(N(C)C)C2O)C(C)(OC(=O)OCCCc2ccc(-c3ncccn3)cc2)CC(C)C(=O)C(C)C2NC(=O)OC12C (stereo not shown) [Compound 139] | 0.06 µg/mL (≈ 0.0715 µM) | – | 0.12 µg/mL (≈ 0.143 µM) | 0.12 µg/mL (≈ 0.143 µM) |
